# How the values were obtained:
# Format in all cases: functional
# [1] = tested on: HT-29; assay: Cytotoxicity against human HT-29 cells assessed as cellular growth at 10 uM by SRB assay
# [2] = tested on: NCI-H226; assay: Cytotoxicity against human NCI-H226 cells assessed as cellular growth at 10 uM by SRB assay
# [3] = tested on: K562; assay: Cytotoxicity against human K562 cells assessed as cellular growth at 10 uM by SRB assay
# [4] = tested on: M14; assay: Cytotoxicity against human M14 cells assessed as cellular growth at 10 uM by SRB assay
# [5] = tested on: OVCAR-3; assay: Cytotoxicity against human OVCAR3 cells assessed as cellular growth at 10 uM by SRB assay
# [6] = tested on: LOX IMVI; assay: Cytotoxicity against human LOXIMVI cells assessed as cellular growth at 10 uM by SRB assay
# [7] = tested on: ACHN; assay: Cytotoxicity against human ACHN cells assessed as cellular growth at 10 uM by SRB assay
# [8] = tested on: HCT-116; assay: Cytotoxicity against human HCT116 cells assessed as cellular growth at 10 uM by SRB assay
# [9] = tested on: HL-60(TB); assay: Cytotoxicity against human HL-60(TB) cells assessed as cellular growth at 10 uM by SRB assay
# [10] = tested on: CAKI-1; assay: Cytotoxicity against human Caki1 cells assessed as cellular growth at 10 uM by SRB assay
# [11] = tested on: SW-620; assay: Cytotoxicity against human SW620 cells assessed as cellular growth at 10 uM by SRB assay
# [12] = tested on: SF-539; assay: Cytotoxicity against human SF539 cells assessed as cellular growth at 10 uM by SRB assay
# [13] = tested on: Hs-578T; assay: Cytotoxicity against human Hs578T cells assessed as cellular growth at 10 uM by SRB assay
# [14] = tested on: Malme-3M; assay: Cytotoxicity against human MALME-3M cells assessed as cellular growth at 10 uM by SRB assay
# [15] = tested on: MDA-MB-231; assay: Cytotoxicity against human MDA-MB-231 cells assessed as cellular growth at 10 uM by SRB assay
# [16] = tested on: SK-MEL-28; assay: Cytotoxicity against human SK-MEL-28 cells assessed as cellular growth at 10 uM by SRB assay
# [17] = tested on: MDA-MB-435; assay: Cytotoxicity against human MDA-MB-435 cells assessed as cellular growth at 10 uM by SRB assay
# [18] = tested on: HOP-62; assay: Cytotoxicity against human HOP62 cells assessed as cellular growth at 10 uM by SRB assay
# [19] = tested on: MOLT-4; assay: Cytotoxicity against human MOLT4 cells assessed as cellular growth at 10 uM by SRB assay
# [20] = tested on: SF-268; assay: Cytotoxicity against human SF268 cells assessed as cellular growth at 10 uM by SRB assay
Compound,Activity [1] [%],Activity [2] [%],Activity [3] [%],Activity [4] [%],Activity [5] [%],Activity [6] [%],Activity [7] [%],Activity [8] [%],Activity [9] [%],Activity [10] [%],Activity [11] [%],Activity [12] [%],Activity [13] [%],Activity [14] [%],Activity [15] [%],Activity [16] [%],Activity [17] [%],Activity [18] [%],Activity [19] [%],Activity [20] [%]
O=C1N=C(c2ccccc2)S/C1=C\c1ccc2c(c1)OCO2,101.51,95.12,73.5,111.64,95.8,102.92,99.6,104.4,111.12,101.66,89.42,95.81,94.3,94.49,104.95,106.02,103.92,94.43,109.24,95.75
Nc1c(C(=O)NCc2ccccc2)sc2nc3c(cc12)C(=O)CCC3,116.55,106.37,111.11,113.61,115.33,103.06,112.59,108.9,119.79,–,105.63,105.28,122.77,139.75,111.36,118.31,–,115.1,119.87,112.13
Oc1ccccc1-c1nc(-c2cccs2)no1,111.27,93.28,96.52,106.76,108.33,100.28,98.95,104.63,–,97.52,95.69,104.64,93.55,105.64,71.74,115.6,112.76,88.78,99.05,112.74
Nc1c(C(=O)Nc2ccccc2F)sc2nc3c(cc12)C(=O)CCC3,12.19,75.1,26.33,19.18,16.76,54.2,65.41,32.04,3387,4.36,30,10.48,37.25,–,48.88,64.11,-25.93,42.7,73.64,54.87
O=S(=O)(Oc1ccc(-c2cnc3ccccc3n2)cc1)c1ccc2ccccc2c1,82.27,98.79,90.95,100.37,107.67,115.1,118.15,94.69,87.7,105.66,100.52,119.65,105.04,–,103.12,112.84,95.36,104.1,89.91,104.06
CC1(C)CC(=O)c2cc3c(N)c(C(=O)Nc4ccccc4Cl)sc3nc2C1,105.6,111.12,96.43,118.29,121.58,117.15,114.15,113.5,–,132.4,108.49,111.8,112.91,121.48,116.03,116.26,105.18,116.65,104.6,122.6
O=c1/c(=C/c2ccccc2)sc2nc(-c3ccc(Cl)cc3Cl)nn12,–,100.81,99.39,103.86,105.06,96.37,109.45,100.59,–,96.38,101.67,114.11,102.33,121.75,–,109.52,119.04,95.63,–,107.58
O=C(NCCc1ccccc1)c1cc2cccc([N+](=O)[O-])c2[nH]1,99.19,82.38,82.43,100.89,109,85.8,93.06,101.79,114.53,87.57,108.15,103.09,111.09,–,77.17,99.12,109.58,90.84,91.34,106.93
Clc1ccc(-c2nc(-c3cccs3)no2)c(Cl)c1,–,88.68,96.15,100.46,99.18,103.49,99.79,94.56,–,81.96,88.07,107.53,96.13,102.62,–,103.74,110.83,84.92,–,99.25
Cc1cc(C)c(NC(=O)c2sc3nc4c(cc3c2N)C(=O)CC(C)(C)C4)c(C)c1,96.21,92.57,90.16,107.36,112.82,–,106.81,99.79,108.84,82.45,106.45,102.77,108.69,92.73,115.09,107.04,97.97,111.49,100.05,115.09
CC1(C)CCc2cc(-c3ccn(S(=O)(=O)c4ccc(Cl)cc4)n3)ccc2O1,70.86,74.42,52.43,80.11,84.01,72.15,89.36,61.1,71.91,64.29,87.74,101.35,99.49,–,76.35,94.67,85.81,92.92,65.38,90.72
Clc1ccc(-c2nc(-c3cccs3)no2)cc1,106.39,100.24,101.77,105.16,103.69,93.13,96.33,92.37,98.45,102.58,105.71,92.56,136.36,–,81.39,115.07,111.2,97.84,86.35,105.52
